# Test system: K12877-001-R-J1-PDC complex spheroid viability
# Experiment: Anticancer human tumor K12877-001-R-J1-PDC patient-derived lung adenocarcinoma cell line growth inhibition [RAS]
# Conditions: for IC50: curve of first compound; for viability, T/C: stronger effect = lower value
# Procedure, shortened: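 Multi-cell-type spheroids: tumor cells plus HUVEC endothelial cells and mesenchymal stem cells. RAS-pathway inhibitors were combined with targeted agents, each dosed in half-log steps down from clinical Cmax, or from 10 microM when Cmax was unknown.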
# [1] = second compound 0.00316 µM, first compound 0.0316 µM
# [2] = second compound 0.00316 µM, first compound 0.1 µM
# [3] = second compound 0.00316 µM, first compound 0.316 µM
# [4] = second compound 0.00316 µM, first compound 1 µM
# [5] = second compound 0.01 µM, first compound 0.0316 µM
# [6] = second compound 0.01 µM, first compound 0.1 µM
# [7] = second compound 0.01 µM, first compound 0.316 µM
# [8] = second compound 0.01 µM, first compound 1 µM
# [9] = second compound 0.0316 µM, first compound 0.0316 µM
# [10] = second compound 0.0316 µM, first compound 0.1 µM
# [11] = second compound 0.0316 µM, first compound 0.316 µM
# [12] = second compound 0.0316 µM, first compound 1 µM
# [13] = second compound 0.1 µM, first compound 0.0316 µM
# [14] = second compound 0.1 µM, first compound 0.1 µM
# [15] = second compound 0.1 µM, first compound 0.316 µM
# [16] = second compound 0.1 µM, first compound 1 µM
# [17] = second compound 0.316 µM, first compound 0.0316 µM
# [18] = second compound 0.316 µM, first compound 0.1 µM
# [19] = second compound 0.316 µM, first compound 0.316 µM
# [20] = second compound 0.316 µM, first compound 1 µM
# [21] = second compound 1 µM, first compound 0.0316 µM
# [22] = second compound 1 µM, first compound 0.1 µM
# [23] = second compound 1 µM, first compound 0.316 µM
# [24] = second compound 1 µM, first compound 1 µM
# [25] = second compound 0.00316 µM, first compound 3.16 µM
# [26] = second compound 0.00316 µM, first compound 10 µM
# [27] = second compound 0.01 µM, first compound 3.16 µM
# [28] = second compound 0.01 µM, first compound 10 µM
# [29] = second compound 0.0316 µM, first compound 3.16 µM
# [30] = second compound 0.0316 µM, first compound 10 µM
# [31] = second compound 0.1 µM, first compound 3.16 µM
# [32] = second compound 0.1 µM, first compound 10 µM
# [33] = second compound 0.316 µM, first compound 3.16 µM
# [34] = second compound 0.316 µM, first compound 10 µM
# [35] = second compound 1 µM, first compound 3.16 µM
# [36] = second compound 1 µM, first compound 10 µM
# 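Further: spheroids exposed to agents for one week before readout.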
# 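Wherever viability, T/C is given: tumour cells co-cultured with HUVEC and mesenchymal stem cells in spheroids.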
compound,measurement,setting,value
CCN1CCN(Cc2ccc(Nc3ncc(F)c(-c4cc(F)c5nc(C)n(C(C)C)c5c4)n3)nc2)CC1 + C=CC(=O)N1CCN(c2nc(OCC3CCCN3C)nc3c(F)c(-c4nc(N)cc(C)c4C(F)(F)F)c(Cl)cc23)C(C)C1,IC50,second compound 0.00316 µM,0.945 µM
same,IC50,second compound 0.01 µM,0.545 µM
same,IC50,second compound 0.0316 µM,0.691 µM
same,IC50,second compound 0.1 µM,0.614 µM
same,IC50,second compound 0.316 µM,0.597 µM
same,IC50,second compound 1 µM,0.696 µM
same,"viability, T/C","second compound 0.00316 µM, first compound 0.00316 µM",95.9%
same,"viability, T/C","second compound 0.00316 µM, first compound 0.01 µM",103%
same,"viability, T/C",[1],97.2%
same,"viability, T/C",[2],91.3%
same,"viability, T/C",[3],83.5%
same,"viability, T/C",[4],47.8%
same,"viability, T/C","second compound 0.01 µM, first compound 0.00316 µM",88.3%
same,"viability, T/C","second compound 0.01 µM, first compound 0.01 µM",89.8%
same,"viability, T/C",[5],85.2%
same,"viability, T/C",[6],95.4%
same,"viability, T/C",[7],65.2%
same,"viability, T/C",[8],33.2%
same,"viability, T/C","second compound 0.0316 µM, first compound 0.00316 µM",96.4%
same,"viability, T/C","second compound 0.0316 µM, first compound 0.01 µM",90.4%
same,"viability, T/C",[9],76.5%
same,"viability, T/C",[10],76.7%
same,"viability, T/C",[11],75.8%
same,"viability, T/C",[12],39.2%
same,"viability, T/C","second compound 0.1 µM, first compound 0.00316 µM",92.2%
same,"viability, T/C","second compound 0.1 µM, first compound 0.01 µM",84.5%
same,"viability, T/C",[13],83.3%
same,"viability, T/C",[14],72.4%
same,"viability, T/C",[15],65.8%
same,"viability, T/C",[16],39.6%
same,"viability, T/C","second compound 0.316 µM, first compound 0.00316 µM",95.2%
same,"viability, T/C","second compound 0.316 µM, first compound 0.01 µM",86.5%
same,"viability, T/C",[17],79.9%
same,"viability, T/C",[18],77.9%
same,"viability, T/C",[19],78.6%
same,"viability, T/C",[20],30.1%
same,"viability, T/C","second compound 1 µM, first compound 0.00316 µM",85%
same,"viability, T/C","second compound 1 µM, first compound 0.01 µM",77.2%
same,"viability, T/C",[21],88.1%
same,"viability, T/C",[22],81.1%
same,"viability, T/C",[23],74.1%
same,"viability, T/C",[24],38.9%
C[C@@H](NC(=O)c1ncnc(N)c1Cl)c1ncc(C(=O)Nc2cc(C(F)(F)F)c(Cl)cn2)s1 + C=CC(=O)N1CCN(c2nc(OCC3CCCN3C)nc3c(F)c(-c4nc(N)cc(C)c4C(F)(F)F)c(Cl)cc23)C(C)C1,IC50,second compound 0.00316 µM,> 10 µM
same,IC50,second compound 0.01 µM,> 10 µM
same,IC50,second compound 0.0316 µM,> 10 µM
same,IC50,second compound 0.1 µM,> 10 µM
same,IC50,second compound 0.316 µM,> 10 µM
same,IC50,second compound 1 µM,> 10 µM
same,"viability, T/C",[1],94.8%
same,"viability, T/C",[2],89.7%
same,"viability, T/C",[3],95.6%
same,"viability, T/C",[4],99.1%
same,"viability, T/C",[25],101%
same,"viability, T/C",[26],99.8%
same,"viability, T/C",[5],96.8%
same,"viability, T/C",[6],82.5%
same,"viability, T/C",[7],92.6%
same,"viability, T/C",[8],92.9%
same,"viability, T/C",[27],97.1%
same,"viability, T/C",[28],85.4%
same,"viability, T/C",[9],91%
same,"viability, T/C",[10],86.9%
same,"viability, T/C",[11],74.3%
same,"viability, T/C",[12],90.1%
same,"viability, T/C",[29],86.8%
same,"viability, T/C",[30],96.5%
same,"viability, T/C",[13],89.6%
same,"viability, T/C",[14],83.5%
same,"viability, T/C",[15],84.7%
same,"viability, T/C",[16],90.4%
same,"viability, T/C",[31],83.7%
same,"viability, T/C",[32],85.2%
same,"viability, T/C",[17],81.4%
same,"viability, T/C",[18],81.8%
same,"viability, T/C",[19],77.1%
same,"viability, T/C",[20],83.6%
same,"viability, T/C",[33],83.1%
same,"viability, T/C",[34],116%
same,"viability, T/C",[21],75%
same,"viability, T/C",[22],75.8%
same,"viability, T/C",[23],89.5%
same,"viability, T/C",[24],92.5%
same,"viability, T/C",[35],91.1%
same,"viability, T/C",[36],113%
Cc1nc(N2CCC3(CC2)COC(C)C3N)c(CO)nc1Sc1ccnc(N)c1Cl (stereo unspecified) + C=CC(=O)N1CCN(c2nc(OCC3CCCN3C)nc3c(F)c(-c4nc(N)cc(C)c4C(F)(F)F)c(Cl)cc23)C(C)C1,IC50,second compound 0.00316 µM,> 10 µM
same,IC50,second compound 0.01 µM,> 10 µM
same,IC50,second compound 0.0316 µM,> 10 µM
same,IC50,second compound 0.1 µM,> 10 µM
same,IC50,second compound 0.316 µM,> 10 µM
same,IC50,second compound 1 µM,> 10 µM
same,"viability, T/C",[1],111%
same,"viability, T/C",[2],98.5%
same,"viability, T/C",[3],90.6%
same,"viability, T/C",[4],86.9%
same,"viability, T/C",[25],92.4%
same,"viability, T/C",[26],93%
same,"viability, T/C",[5],94.8%
same,"viability, T/C",[6],79.3%
same,"viability, T/C",[7],84.4%
same,"viability, T/C",[8],93.3%
same,"viability, T/C",[27],83.9%
same,"viability, T/C",[28],68.5%
same,"viability, T/C",[9],91.2%
same,"viability, T/C",[10],92.9%
same,"viability, T/C",[11],88.3%
same,"viability, T/C",[12],70%
same,"viability, T/C",[29],80.7%
same,"viability, T/C",[30],65.8%
same,"viability, T/C",[13],99.7%
same,"viability, T/C",[14],87.6%
same,"viability, T/C",[15],85.7%
same,"viability, T/C",[16],86.9%
same,"viability, T/C",[31],79.2%
same,"viability, T/C",[32],60.2%
same,"viability, T/C",[17],84.9%
same,"viability, T/C",[18],75.9%
same,"viability, T/C",[19],80.5%
same,"viability, T/C",[20],93.9%
same,"viability, T/C",[33],79.4%
same,"viability, T/C",[34],61.4%
same,"viability, T/C",[21],87.3%
same,"viability, T/C",[22],90.8%
same,"viability, T/C",[23],98.8%
same,"viability, T/C",[24],92.6%
same,"viability, T/C",[35],78.8%
same,"viability, T/C",[36],62.2%

# From PubChem BioAssay AID2060894 (Molecular Pharmacology Branch, DTP, NCI, 2025)
